“And” between values parts separate entries of the source, which are not always exact repeats. Identical values can stand only once. Like-named read-outs stand apart in the source and are kept apart here. Marks after values point to notes of the source that are not given here.
Legend:
[1] = test system: nitric oxide synthase system; conditions: poultry; for Residual Nitrite, LSMean main effect of Temperature: sodium nitrite
Method: (§1) Fresh ground meat (beef, pork or poultry) was separated in ˜0.5 Kg batches and mixed with 2% salt and 10% added water. […] Each individual batch was mixed (1 min) in a food processor, removed for temperature and pH analyses and then placed into a jerky extruder tube. Approximately 25 g of sample were extruded into 50 mL centrifuge, then capped and labeled and placed into a controlled water batch and heated to a designated internal endpoint temperature (132, 158, or 165° F.).
(§2) Samples also contained 547 ppm sodium erythorbate, a cure accelerator (Phase I) and without sodium erythorbate (Phase II). Samples were placed into test tubes and heated in a controlled water bath to 132, 158 and 165° F. Samples were held in a 40° F. cooler for seven days then tested for residual nitrite. Residual nitrite was tested after deproteinization for amino acid analysis by HPLC. Determination of nitrite (UV/VIS Spectrophotometric Method) was used to detect any residual nitrite for best results in detecting minute amounts of nitrite. Residual nitrite levels were read in a 96 well plate reader at 540 nm.
(§3) Both phases of the experiment were designed as a factorial (concentration level and endpoint temperature) randomized complete block design with three replications. […] Least squares means were generated and Tukey's HSD used to determine significance at P≤0.05.

[2] = 156 ppm sodium nitrite
Method: (§4) After thermal processing and chilling according to USDA-FSIS Appendix A—Thermal processing (71° C.) and B—Cooling procedures (2° C.) guidelines, the frankfurters will be vacuum packaged and stored under refrigeration (2° C.) until analyzed at 0, 14, 28 and 56 days post manufacture.
Cooked sample water activity was measured (in triplicate) using an Aqualab Model Series 3 water activity meter.
(§5) Samples were vacuum packaged and refrigerated and evaluated on Day 1, 7, 14, 28 and 56 post manufacture. Differences between treatment and control samples will be determined using Tukey's Least Significant Difference procedure at P≤0.05 level. The experiment was replicated three times.

NOS system [3] = assay: Residual nitrite in test beef frankfurters (Example 12); conditions: 156 ppm sodium nitrite with sodium erythorbate 547 ppm
Method: (§6) The remaining nonmeat ingredients were added (except the antimicrobial) and chopped at 2000 rpm for one minute. Protecta (sodium acetate antimicrobial) was added and the emulsion chopped at 4000 rpm for one minute. The emulsion was evacuated and placed into a vacuum assisted stuffer where each test emulsion was stuffed and twist linked into 22 mm cellulose casings weighing 40 g each. The frankfurter links were hung on smokehouse trucks, placed into a commercial smokehouse and thermally processed to 160° F. (Table 18).
(§7) After thermal processing and chilling (40° F.), the casings were peeled from the frankfurters and were vacuum packaged and stored under refrigerated conditions for residual nitrite and nitrosylation. […] This was done to determine if the L-arginine could the NOS system to generate sufficient NO for cure color development and residual nitrite for antioxidant and antimicrobial effect.

[4] = test system: nitric oxide synthase system; conditions: 156 ppm sodium nitrite
Method: as §4
The samples were analyzed for residual nitrite after deproteinization by sample preparation for amino acid analysis by HPLC.
as §5

[5] = test system: nitric oxide synthase system; conditions: pork; for Residual Nitrite, LSMean main effect of Temperature: sodium nitrite
Method: as §1, §2, §3

NOS system [6] = assay: NO-heme, total heme, nitrosylation in test beef frankfurters (Example 12); conditions: 156 ppm sodium nitrite with sodium erythorbate 547 ppm
Method: as §6, §7

[7] = test system: nitric oxide synthase system; conditions: beef; for Residual Nitrite, LSMean main effect of Temperature: sodium nitrite
Method: as §1, §2, §3

[8] = Phase I, with 547 ppm sodium erythorbate, 120 ppm sodium nitrite
[9] = Phase I, with 547 ppm sodium erythorbate, 120 ppm sodium nitrite, 132° F.
[10] = Phase I, with 547 ppm sodium erythorbate, 120 ppm sodium nitrite, 158° F.
[11] = Phase I, with 547 ppm sodium erythorbate, 120 ppm sodium nitrite, 165° F.
[12] = Phase I, with 547 ppm sodium erythorbate, 156 ppm sodium nitrite
[13] = Phase I, with 547 ppm sodium erythorbate, 156 ppm sodium nitrite, 132° F.
[14] = Phase I, with 547 ppm sodium erythorbate, 156 ppm sodium nitrite, 158° F.
[15] = Phase I, with 547 ppm sodium erythorbate, 156 ppm sodium nitrite, 165° F.
[16] = Phase I, with 547 ppm sodium erythorbate, 200 ppm sodium nitrite
[17] = Phase I, with 547 ppm sodium erythorbate, 200 ppm sodium nitrite, 132° F.
[18] = Phase I, with 547 ppm sodium erythorbate, 200 ppm sodium nitrite, 158° F.
[19] = Phase I, with 547 ppm sodium erythorbate, 200 ppm sodium nitrite, 165° F.
[20] = Phase I, with 547 ppm sodium erythorbate, 132° F.
[21] = Phase I, with 547 ppm sodium erythorbate, 158° F.
[22] = Phase I, with 547 ppm sodium erythorbate, 165° F.
[23] = Phase II, without 547 ppm sodium erythorbate, 120 ppm sodium nitrite, 132° F.
[24] = Phase II, without 547 ppm sodium erythorbate, 120 ppm sodium nitrite, 158° F.
[25] = Phase II, without 547 ppm sodium erythorbate, 120 ppm sodium nitrite, 165° F.
[26] = Phase II, without 547 ppm sodium erythorbate, 156 ppm sodium nitrite, 132° F.
[27] = Phase II, without 547 ppm sodium erythorbate, 156 ppm sodium nitrite, 158° F.
[28] = Phase II, without 547 ppm sodium erythorbate, 156 ppm sodium nitrite, 165° F.
[29] = Phase II, without 547 ppm sodium erythorbate, 200 ppm sodium nitrite, 132° F.
[30] = Phase II, without 547 ppm sodium erythorbate, 200 ppm sodium nitrite, 158° F.
[31] = Phase II, without 547 ppm sodium erythorbate, 200 ppm sodium nitrite, 165° F.
[32] = Phase II, without 547 ppm sodium erythorbate, 132° F.
[33] = Phase II, without 547 ppm sodium erythorbate, 158° F.
[34] = Phase II, without 547 ppm sodium erythorbate, 165° F.
[35] = Phase II, without 547 ppm sodium erythorbate, 120 ppm sodium nitrite
[36] = Phase II, without 547 ppm sodium erythorbate, 156 ppm sodium nitrite
[37] = Phase II, without 547 ppm sodium erythorbate, 200 ppm sodium nitrite

O=NO [Sodium Nitrite, Sodium nitrite, reference compound]
Residual Nitrite, LSMean main effect of Concentration [1, 8]: 64.56^b ppm and 64.56 ppm | Residual Nitrite, LSMean Conc × Temp [1, 9]: 66.48 ppm | Residual Nitrite, LSMean Conc × Temp [1, 10]: 68.47 ppm | Residual Nitrite, LSMean Conc × Temp [1, 11]: 58.74 ppm | Residual Nitrite, LSMean main effect of Concentration [1, 12]: 78.51^ab ppm and 78.51 ppm | Residual Nitrite, LSMean Conc × Temp [1, 13]: 80.52 ppm | Residual Nitrite, LSMean Conc × Temp [1, 14]: 85.36 ppm | Residual Nitrite, LSMean Conc × Temp [1, 15]: 69.65 ppm | Residual Nitrite, LSMean main effect of Concentration [1, 16]: 90.59^a ppm and 90.59 ppm | Residual Nitrite, LSMean Conc × Temp [1, 17]: 107.26 ppm | Residual Nitrite, LSMean Conc × Temp [1, 18]: 86.10 ppm | Residual Nitrite, LSMean Conc × Temp [1, 19]: 78.41 ppm | Residual Nitrite, LSMean main effect of Temperature [1, 20]: 84.75^a ppm and 84.75 ppm | Residual Nitrite, LSMean main effect of Temperature [1, 21]: 79.98^ab ppm and 79.98 ppm | Residual Nitrite, LSMean main effect of Temperature [1, 22]: 68.93^b ppm and 68.93 ppm | Residual Nitrite, LSMean Conc × Temp [1, 23]: 171.64^cde ppm | Residual Nitrite, LSMean Conc × Temp [1, 24]: 148.63^e ppm | Residual Nitrite, LSMean Conc × Temp [1, 25]: 162.23^de ppm | Residual Nitrite, LSMean Conc × Temp [1, 26]: 202.54^bc ppm | Residual Nitrite, LSMean Conc × Temp [1, 27]: 177.54^cde ppm | Residual Nitrite, LSMean Conc × Temp [1, 28]: 165.70^cde ppm | Residual Nitrite, LSMean Conc × Temp [1, 29]: 249.27^a ppm | Residual Nitrite, LSMean Conc × Temp [1, 30]: 223.86^ab ppm | Residual Nitrite, LSMean Conc × Temp [1, 31]: 189.46^cd ppm | Residual Nitrite, LSMean main effect of Temperature [1, 32]: 207.82^a ppm and 207.82 ppm | Residual Nitrite, LSMean main effect of Temperature [1, 33]: 183.34^b ppm and 183.34 ppm | Residual Nitrite, LSMean main effect of Temperature [1, 34]: 172.46^b ppm and 172.46 ppm | water activity (Aw) ([2]; Day 1): 0.979 | water activity (Aw) ([2]; Day 7): 0.979 | water activity (Aw) ([2]; Day 14): 0.972 | water activity (Aw) ([2]; Day 28): 0.978 | Nitrite (NOS system [3]): 21.27^a ppm | Nitrite (NOS system [3]; listed as sodium nitrite): 21.27 ppm and ~18 ppm | residual sodium nitrite ([4]; Day 1): 85.05 | residual sodium nitrite ([4]; Day 7): 74.53 | residual sodium nitrite ([4]; Day 14): 121.03 | residual sodium nitrite ([4]; Day 28): 73.73 | Residual Nitrite, LSMean main effect of Concentration [5, 8]: 42.30^b ppm and 42.30 ppm | Residual Nitrite, LSMean Conc × Temp [5, 9]: 58.68 ppm | Residual Nitrite, LSMean Conc × Temp [5, 10]: 41.15 ppm | Residual Nitrite, LSMean Conc × Temp [5, 11]: 27.07 ppm | Residual Nitrite, LSMean main effect of Concentration [5, 12]: 62.37^a ppm and 62.37 ppm | Residual Nitrite, LSMean Conc × Temp [5, 13]: 66.93 ppm | Residual Nitrite, LSMean Conc × Temp [5, 14]: 46.37 ppm | Residual Nitrite, LSMean Conc × Temp [5, 15]: 73.82 ppm | Residual Nitrite, LSMean main effect of Concentration [5, 16]: 68.22^a ppm and 68.22 ppm | Residual Nitrite, LSMean Conc × Temp [5, 17]: 63.47 ppm | Residual Nitrite, LSMean Conc × Temp [5, 18]: 57.10 ppm | Residual Nitrite, LSMean Conc × Temp [5, 19]: 84.08 ppm | Residual Nitrite, LSMean main effect of Temperature [5, 20]: 63.03 ppm | Residual Nitrite, LSMean main effect of Temperature [5, 21]: 48.21 ppm | Residual Nitrite, LSMean main effect of Temperature [5, 22]: 61.66 ppm | Residual Nitrite, LSMean main effect of Concentration [5, 35]: 214.53^a ppm and 214.53 ppm | Residual Nitrite, LSMean Conc × Temp [5, 23]: 173.70^ab ppm | Residual Nitrite, LSMean Conc × Temp [5, 24]: 178.90^ab ppm | Residual Nitrite, LSMean Conc × Temp [5, 25]: 164.54^b ppm | Residual Nitrite, LSMean main effect of Concentration [5, 36]: 183.17^b ppm and 183.17 ppm | Residual Nitrite, LSMean Conc × Temp [5, 26]: 208.65^ab ppm | Residual Nitrite, LSMean Conc × Temp [5, 27]: 166.20^b ppm | Residual Nitrite, LSMean Conc × Temp [5, 28]: 174.67^ab ppm | Residual Nitrite, LSMean main effect of Concentration [5, 37]: 172.38^b ppm and 172.38 ppm | Residual Nitrite, LSMean Conc × Temp [5, 29]: 196.48^ab ppm | Residual Nitrite, LSMean Conc × Temp [5, 30]: 232.01^a ppm | Residual Nitrite, LSMean Conc × Temp [5, 31]: 215.08^ab ppm | Residual Nitrite, LSMean main effect of Temperature [5, 32]: 192.61 ppm | Residual Nitrite, LSMean main effect of Temperature [5, 33]: 186.00 ppm | Residual Nitrite, LSMean main effect of Temperature [5, 34]: 185.85 ppm | NO-Heme (NOS system [6]): 17.88^b ppm | Nitrosylation (NOS system [6]): 94.93^b % | Total Heme (NOS system [6]): 79.11^a ppm | Nitrosylation (NOS system [6]; listed as sodium nitrite): 94.93% | Residual Nitrite, LSMean main effect of Concentration [7, 8]: 75.33 ppm | Residual Nitrite, LSMean Conc × Temp [7, 9]: 119.32^a ppm | Residual Nitrite, LSMean Conc × Temp [7, 10]: 60.08^bc ppm | Residual Nitrite, LSMean Conc × Temp [7, 11]: 46.59^c ppm | Residual Nitrite, LSMean main effect of Concentration [7, 12]: 81.08 ppm | Residual Nitrite, LSMean Conc × Temp [7, 13]: 107.54^ab ppm | Residual Nitrite, LSMean Conc × Temp [7, 14]: 77.51^abc ppm | Residual Nitrite, LSMean Conc × Temp [7, 15]: 58.18^bc ppm | Residual Nitrite, LSMean main effect of Concentration [7, 16]: 72.05 ppm | Residual Nitrite, LSMean Conc × Temp [7, 17]: 86.41^abc ppm | Residual Nitrite, LSMean Conc × Temp [7, 18]: 47.02^c ppm | Residual Nitrite, LSMean Conc × Temp [7, 19]: 82.73^ab ppm | Residual Nitrite, LSMean main effect of Temperature [7, 20]: 104.42^a ppm and 104.42 ppm | Residual Nitrite, LSMean main effect of Temperature [7, 21]: 61.54^b ppm and 61.54 ppm | Residual Nitrite, LSMean main effect of Temperature [7, 22]: 62.50^b ppm and 62.50 ppm | Residual Nitrite, LSMean main effect of Concentration [7, 35]: 182.18 ppm | Residual Nitrite, LSMean Conc × Temp [7, 23]: 187.92 ppm | Residual Nitrite, LSMean Conc × Temp [7, 24]: 204.95 ppm | Residual Nitrite, LSMean Conc × Temp [7, 25]: 153.68 ppm | Residual Nitrite, LSMean main effect of Concentration [7, 36]: 202.15 ppm | Residual Nitrite, LSMean Conc × Temp [7, 26]: 199.54 ppm | Residual Nitrite, LSMean Conc × Temp [7, 27]: 214.72 ppm | Residual Nitrite, LSMean Conc × Temp [7, 28]: 192.19 ppm | Residual Nitrite, LSMean main effect of Concentration [7, 37]: 196.51 ppm | Residual Nitrite, LSMean Conc × Temp [7, 29]: 184.28 ppm | Residual Nitrite, LSMean Conc × Temp [7, 30]: 202.30 ppm | Residual Nitrite, LSMean Conc × Temp [7, 31]: 202.96 ppm | Residual Nitrite, LSMean main effect of Temperature [7, 32]: 190.58 ppm | Residual Nitrite, LSMean main effect of Temperature [7, 33]: 207.32 ppm | Residual Nitrite, LSMean main effect of Temperature [7, 34]: 182.94 ppm
